In brackets after ≈: the same amount, converted by molar mass.
Columns and labels:
Format in all cases: cell-based
S. aureus UC9213 = assay: MIC by standard agar dilution, S. aureus UC9213; conditions: incubated overnight at 35° C.; for MIC: Staphylococcus aureus, UC9213, Mueller Hinton agar
Text: (§1) The in vitro activity of compounds of the subject invention may be assessed by standard testing procedures such as the determination of minimum inhibitory concentration (MIC) by agar dilution as described in “Approved Standard. Methods for Dilution Antimicrobial Susceptibility Tests for Bacteria that Grow Aerobically,” 3rd ed., published 1993 by the National Committee for Clinical Laboratory standards, Villanova, Pa., USA.
(§2) The in vitro MICs of test compounds may be determined by a standard agar dilution method. A stock drug solution of each analog is prepared in a preferred solvent, usually DMSO:H2O (1:3). Serial 2-fold dilutions of each sample are made using 1.0 mL aliquots of sterile distilled water. To each 1.0 mL aliquot of drug is added 9 mL of molten Mueller Hinton agar medium. The drug-supplemented agar is mixed, poured into 15×100 mm petri dishes, and allowed to solidify and dry prior to inoculation.
(§3) Vials of each of the test organisms are maintained frozen in the vapor phase of a liquid nitrogen freezer. Test cultures are grown overnight at 35° C. on the medium appropriate for the organism. Colonies are harvested with a sterile swab, and cell suspensions are prepared in Trypticase Soy broth (TSB) to equal the turbidity of a 0.5 McFarland standard. A 1:20 dilution of each suspension is made in TSB. The plates containing the drug supplemented agar are inoculated with a 0.001 mL drop of the cell suspension using a Steers replicator, yielding approximately 10^4 to 10^5 cells per spot. The plates are incubated overnight at 35° C.
(§4) Following incubation the Minimum Inhibitory Concentration (MIC μg/mL), the lowest concentration of drug that inhibits visible growth of the organism, is read and recorded.

S. pneumoniae UC9912 = assay: MIC by standard agar dilution, S. pneumoniae UC9912; conditions: incubated overnight at 35° C.; for MIC: Streptococcus pneumoniae, UC9912, Mueller Hinton agar
Text: as §1, §2, §3, §4

H. influenzae 30063 = assay: MIC by standard agar dilution, H. influenzae 30063; conditions: Haemophilus influenzae, 30063, agar dilution, Mueller Hinton agar, incubated overnight at 35° C.; read-out: H. influenzae 30063 MIC
Text: as §1, §2, §3, §4

SMILES	MIC (S. aureus UC9213)	MIC (S. pneumoniae UC9912)	MIC (H. influenzae 30063)	S. aureus UC9213 MIC (S. aureus UC9213; Mueller Hinton agar)	S. pneumoniae UC9912 MIC (S. pneumoniae UC9912; Mueller Hinton agar)
CC(=O)NC[C@H]1CN(c2ccc([C@H]3[C@@H]4CN(CCF)C[C@@H]43)c(F)c2)C(=O)O1 [Example 46, N-[((5S)-3-{3-fluoro-4-[exo-(1R,5S)-3-(2-fluoroethyl)-3-azabicyclo[3.1.0]hex-6-yl]phenyl}-2-oxo-1,3-oxazolidin-5-yl)methyl]acetamide]	8 µg/mL (≈ 21.1 µM)	2 µg/mL (≈ 5.27 µM)	16 µg/mL (≈ 42.2 µM)	–	–
O=C(NC[C@H]1CN(c2ccc([C@H]3[C@@H]4C[S+]([O-])C[C@@H]43)c(F)c2)C(=O)O1)C1CC1 (stereo partly drawn) [Example 52, N-[((5S)-3-{3-fluoro-4-[exo-(1R,5S)-3-oxido-3-thiabicyclo[3.1.0]hex-6-yl]phenyl}-2-oxo-1,3-oxazolidin-5-yl)methyl]cyclopropanecarboxamide]	4 µg/mL (≈ 10.2 µM)	1 µg/mL (≈ 2.55 µM)	4 µg/mL (≈ 10.2 µM)	–	–
O=C(CO)NC[C@H]1CN(c2ccc([C@H]3[C@@H]4CS(=O)(=O)C[C@@H]43)c(F)c2)C(=O)O1 [Example 67, N-[((5S)-3-{3-fluoro-4-{exo-(1R,5 S)-3,3-dioxido-3-thiabicyclo[3.1.0]hex-6-yl]phenyl}-2-oxo-1,3-oxazolidin-5-yl)methyl]-2-hydroxyacetamide]	4 µg/mL (≈ 10 µM)	4 µg/mL (≈ 10 µM)	4 µg/mL (≈ 10 µM)	–	–
CC(=O)NC[C@H]1CN(c2ccc([C@H]3[C@@H]4CN(C(=O)c5ccno5)C[C@@H]43)c(F)c2)C(=O)O1 [Example 37, N-[((5S)-3-{3-fluoro-4-[exo-(1R,5S)-3-(isoxazole-5-carbonyl)-3-azabicyclo[3.1.0]hex-6-yl]phenyl}-2-oxo-1,3-oxazolidin-5-yl)methyl]acetamide]	1 µg/mL (≈ 2.33 µM)	0.5 µg/mL (≈ 1.17 µM)	8 µg/mL (≈ 18.7 µM)	–	–
CC(=O)NC[C@H]1CN(c2ccc([C@H]3[C@@H]4CN(C(=O)C(C)(C)O)C[C@@H]43)c(F)c2)C(=O)O1 [Example 32, N-[((5S)-3-{3-fluoro-4-[exo-(1R,5S)-3-(2-hydroxy-2-methyl-propanoyl)-3-azabicyclo[3.1.0]hex-6-yl]phenyl}-2-oxo-1,3-oxazolidin-5-yl)methyl]acetamide]	2 µg/mL (≈ 4.77 µM)	0.5 µg/mL (≈ 1.19 µM)	8 µg/mL (≈ 19.1 µM)	–	–
N#CCC(=O)NC[C@H]1CN(c2cc(F)c([C@H]3[C@@H]4CS(=O)(=O)C[C@@H]43)c(F)c2)C(=O)O1 [Example 71, 2-cyano-N-[((5S)-3-{3,5-difluoro-4-[exo-(1R,5S)-3,3-dioxide-3-thiabicyclo[3.1.0]hex-6-yl]phenyl}-2-oxo-1,3-oxazolidin-5-yl)methyl]acetamide]	4 µg/mL (≈ 9.4 µM)	2 µg/mL (≈ 4.7 µM)	4 µg/mL (≈ 9.4 µM)	–	–
O=C(NC[C@H]1CN(c2cc(F)c([C@H]3[C@@H]4C[S+]([O-])C[C@@H]43)c(F)c2)C(=O)O1)C1CC1 (stereo partly drawn) [Example 61, N-[((5S)-3-{3,5-difluoro-4-[exo-(1R,5S)-3-oxido-3-thiabicyclo[3.1.0]hex-6-yl]phenyl}-2-oxo-1,3-oxazolidin-5-yl)methyl]cyclopropanecarboxamide]	2 µg/mL (≈ 4.87 µM)	1 µg/mL (≈ 2.44 µM)	8 µg/mL (≈ 19.5 µM)	–	–
CC(F)(F)C(=O)NC[C@H]1CN(c2cc(F)c([C@H]3[C@@H]4CS(=O)(=O)C[C@@H]43)c(F)c2)C(=O)O1 [Example 60, 2,2-difluoro-N-[((5S)-3-{3,5-difluoro-4-[exo-(1R,5S)-3,3-dioxido-3-thiabicyclo[3.1.0]hex-6-yl]phenyl}-2-oxo-1,3-oxazolidin-5-yl)methyl]propanamide]	8 µg/mL (≈ 17.8 µM)	2 µg/mL (≈ 4.44 µM)	16 µg/mL (≈ 35.5 µM)	–	–
O=C(NC[C@H]1CN(c2ccc([C@H]3[C@@H]4C[S+]([O-])C[C@@H]43)c(F)c2)C(=O)O1)C1CCC1 (stereo partly drawn) [Example 56, N-[((5S)-3-{3-fluoro-4-[exo-(1R,5S)-3-oxido-3-thiabicyclo[3.1.0]hex-6-yl]phenyl}-2-oxo-1,3-oxazolidin-5-yl)methyl]cyclobutanecarboxamide]	4 µg/mL (≈ 9.84 µM)	2 µg/mL (≈ 4.92 µM)	16 µg/mL (≈ 39.4 µM)	–	–
O=C(CO)N1C[C@@H]2[C@H](C1)[C@H]2c1ccc(N2C[C@H](CNC(=S)C(F)F)OC2=O)cc1F [Example 6, 2,2-difluoro-N-[((5S)-3-{3-fluoro-4-[exo-(1R,5S)-3-gycoloyl-3-azabicyclo[3.1.0]hex-6-yl]phenyl}-2-oxo-1,3-oxazolidin-5-yl)methyl]ethanethioamide]	0.5 µg/mL (≈ 1.13 µM)	0.25 µg/mL (≈ 0.564 µM)	4 µg/mL (≈ 9.02 µM)	–	–
CC(=O)NC[C@H]1CN(c2ccc([C@H]3[C@@H]4CN(C(=O)C5(O)CC5)C[C@@H]43)c(F)c2)C(=O)O1 [Example 31, N-[((5 S)-3-{3-fluoro-4-[exo-(1R,5S)-3-(1-hydroxy-cyclopropanecarbonyl)-3-azabicyclo[3.1.0]hex-6-yl]phenyl}-2-oxo-1,3-oxazolidin-5-yl)methyl]acetamide]	2 µg/mL (≈ 4.79 µM)	2 µg/mL (≈ 4.79 µM)	16 µg/mL (≈ 38.3 µM)	–	–
CN/C(=C\[N+](=O)[O-])N1C[C@@H]2[C@H](C1)[C@H]2c1ccc(N2C[C@H](CNC(C)=O)OC2=O)cc1F [Example 75, N-[((5S)-3-{3-fluoro-4-[exo-(1R,5S)-3-((E)-1-{methylamino}-2-nitrovinyl)-3-azabicyclo[3.1.0]hex-6-yl]phenyl}-2-oxo-1,3-oxazolidin-5-yl)methyl]acetamide]	2 µg/mL (≈ 4.61 µM)	2 µg/mL (≈ 4.61 µM)	4 µg/mL (≈ 9.23 µM)	–	–
CC(=O)NC[C@H]1CN(c2cc(F)c([C@H]3[C@@H]4CN(C(=O)CO)C[C@@H]43)c(F)c2)C(=O)O1 [Example 15, N-[((5S)-3-{3,5-difluoro-4-[exo-(1R,5S)-3-glycoloyl-3-azabicyclo[3.1.0]hex-6-yl]phenyl}-2-oxo-1,3-oxazolidin-5-yl)methyl]acetamide]	2 µg/mL (≈ 4.89 µM)	0.5 µg/mL (≈ 1.22 µM)	16 µg/mL (≈ 39.1 µM)	–	–
COC(=O)N1C[C@@H]2C(c3ccc(N4C[C@H](CNC(C)=O)OC4=O)cc3F)[C@@H]2C1 (stereo partly drawn) [Example 7, methyl exo-(1R,5S)-6-(4-{(5S)-5-[(acetylamino)methyl]-2-oxo-1,3-oxazolidin-3-yl}-2-fluorophenyl)-3-azabicyclo[3.1.0]hexane-3-carboxylate]	–	–	–	2 µg/mL	0.5 µg/mL
CC(F)(F)C(=O)NC[C@H]1CN(c2ccc([C@H]3[C@@H]4CS(=O)(=O)C[C@@H]43)c(F)c2)C(=O)O1 [Example 55, 2,2-difluoro-N-[((5S)-3-{3-fluoro-4-[exo-(1R,5S)-3,3-dioxido-3-thiabicyclo[3.1.0]hex-6-yl]phenyl}-2-oxo-1,3-oxazolidin-5-yl)methyl]propanamide]	8 µg/mL (≈ 18.5 µM)	2 µg/mL (≈ 4.63 µM)	16 µg/mL (≈ 37 µM)	–	–
CCC(=O)NC[C@H]1CN(c2cc(F)c([C@H]3[C@@H]4CN(C(=O)CO)C[C@@H]43)c(F)c2)C(=O)O1 [Example 64, N-[((5S)-3-{3,5-difluoro-4-[exo-(1R,5S)-3-glycoloyl-3-azabicyclo[3.1.0]hex-6-yl]phenyl]-2-oxo-1,3-oxazolidin-5-yl)methyl]propanamide]	4 µg/mL (≈ 9.45 µM)	2 µg/mL (≈ 4.72 µM)	8 µg/mL (≈ 18.9 µM)	–	–
CCC(=O)NC[C@H]1CN(c2ccc([C@H]3[C@@H]4CN(C(=O)CO)C[C@@H]43)c(F)c2)C(=O)O1 [Example 26, N-[((5S)-3-{3-fluoro-4-[exo-(1R,5S)-3-glycoloyl-3-azabicyclo[3.1.0]hex-6-yl]phenyl}-2-oxo-1,3-oxazolidin-5-yl)methyl]propanamide]	1 µg/mL (≈ 2.47 µM)	0.5 µg/mL (≈ 1.23 µM)	4 µg/mL (≈ 9.87 µM)	–	–
CC(=O)NC[C@H]1CN(c2ccc([C@H]3[C@@H]4COC[C@@H]43)cc2)C(=O)O1 [Example 16, N-[((5S)-3-{4-[exo-(1R,5S)-3-oxabicyclo[3.1.0]hex-6-yl]phenyl}-2-oxo-1,3-oxazolidin-5-yl)methyl]acetamide]	4 µg/mL (≈ 12.6 µM)	2 µg/mL (≈ 6.32 µM)	16 µg/mL (≈ 50.6 µM)	–	–
CC(=O)NC[C@H]1CN(c2ccc([C@H]3[C@@H]4CN(C(=O)c5cn[nH]c5)C[C@@H]43)c(F)c2)C(=O)O1 [Example 40, N-[((5S)-3-{3-fluoro-4-[exo-(1R,5S)-3-(1H-pyrazole-4-carbonyl)-3-azabicyclo[3.1.0]hex-6-yl]phenyl}-2-oxo-1,3-oxazolidin-5-yl)methyl]acetamide]	4 µg/mL (≈ 9.36 µM)	2 µg/mL (≈ 4.68 µM)	16 µg/mL (≈ 37.4 µM)	–	–
CC(=O)NC[C@H]1CN(c2ccc([C@H]3[C@@H]4CN(/C(N)=N/C#N)C[C@@H]43)c(F)c2)C(=O)O1 [Example 74, exo-(1R,5S)-N′-cyano-6-(4-{(5S)-5-[(acetylamino)methyl]-2-oxo-1,3-oxazolidin-3-yl}-2-fluorophenyl)-3-azabicyclo[3.1.0]hexane-3-carboximidamide]	1 µg/mL (≈ 2.5 µM)	1 µg/mL (≈ 2.5 µM)	4 µg/mL (≈ 9.99 µM)	–	–
N#CCC(=O)NC[C@H]1CN(c2ccc([C@H]3[C@@H]4CS(=O)(=O)C[C@@H]43)c(F)c2)C(=O)O1 [Example 69, 2-cyano-N-[((5S)-3-{3-fluoro-4-[exo-(1R,5S)-3,3-dioxido-3-thiabicyclo[3.1.0]hex-6-yl]phenyl}-2-oxo-1,3-oxazolidin-5-yl)methyl]acetamide]	4 µg/mL (≈ 9.82 µM)	4 µg/mL (≈ 9.82 µM)	8 µg/mL (≈ 19.6 µM)	–	–
